SMILES strings stand for the structures. Peptide text beside a SMILES is read from it.

Data on 1 compound can be found in patent US20260115250A1, “METHODS OF TREATING AGE-RELATED MACULAR DEGENERATION” (Character Biosciences, Inc., priority 2022, published 2026).

Assay [1] is described as follows: DMPC solubility assay, 0.5 mM DMPC (turbidity reduction). It counts as biochemical. The note with it: FIGS. 2A-2D and 3A-3C. An outline of the steps:
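Peptides (100 μM final, or 3.16-100 μM for titrations) incubated with 0.5 mM DMPC in water for 15 minutes at room temperature. Turbidity read as absorbance at 405 nm; EC50 from non-linear regression, mean+SD over two runs.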

Assay [2] relates to HMC3 cells. Briefly: HMC3 cholesterol efflux. In kind it is cell-based, human.
In assay [3] the test system is ARPE-19 cells. The assay is described as follows: ARPE-19 cholesterol import (BODIPY-Cholesterol). In kind it is cell-based, human. The note with it: ARPE-19, peptide:lipid complexes from 30 μM diluted 1:3, FIG. 16. As for the experimental part: FIG. 12 and FIGS. 14A-14B illustrate the results of ARPE-19 cholesterol import testing. ARPE-19 cells were seeded on 96-well plates at 25,000 cells per well and grown to confluence. A 2× solution of 500 μM DMPC and 50 μM BODIPY-Cholesterol were prepared in serum free DMEM: F12. Peptides were diluted to 20 μM in serum free DMEM: F12 (a 2× solution). Peptides were added to lipid solution in equal parts (60 μL each) and were incubated for 1 hour at 37° C. ARPE-19 cells were serum starved in serum free DMEM: F12 for 1 hour at 37° C. Peptide: Lipid complexes (100 μL total volume per well) were transferred to ARPE-19 cells for 2 hours at 37° C. Cells were washed, fixed, and intracellular fluorescence was read on Promega GloMax at 475 nm excitation, 500-550 emission. Fluorescence values were background corrected from no treatment conditions. Data are presented as mean+SD for two runs.
FIG. 15 illustrates ARPE-19 cholesterol import titration curves for a subset of the peptides. ARPE-19 cells were seeded on 96-well plates at 25,000 cells per well and grown to confluence. A 2× solution of 500 μM DMPC and 50 μM BODIPY-Cholesterol was prepared in serum free DMEM: F12. Peptides were diluted to 0.74-60 μM in serum free DMEM: F12 (2× solutions). Peptides were added to lipid solution in equal parts (60 μL each) to create final peptide concentrations of 0.37-30 µM and incubated for 1 hour at 37° C. ARPE-19 cells were serum starved in serum free DMEM: F12 for 1 hour at 37° C. Peptide: Lipid complexes (100 μL total volume per well) were transferred to ARPE-19 cells for 2 hours at 37° C. Cells were washed, fixed, and intracellular fluorescence was read on Promega GloMax at 475 nm excitation, 500-550 emission. Fluorescence values were background corrected from no treatment conditions. […]
ARPE-19 cells were seeded on 96-well plates at 25,000 cells per well and grown to confluence. […] Cells were washed, fixed, and intracellular fluorescence was read on Promega GloMax at 475 nm excitation, 500-550 emission. Fluorescence values were background corrected from no treatment conditions. […]

A short description of assay [4]: DMPC solubility titration, 1 mM DMPC. In kind it is biochemical. The note with it: 3.16-100 μM peptides, 15 minutes. As to the method: FIGS. 4A-4B illustrate a screening assay based on DMPC solubility, measured by reducing turbidity of DMPC liposome solutions, for a subset of the peptides in FIGS. 1B-1I. FIGS. 4A-4B illustrate DMPC solubility titration curves. Peptide stocks were diluted to 200 μM in H2O (a 2× solution) and serially diluted in H2O over 4 concentrations, then 50 μL of peptide solutions were distributed in triplicate into 96-well plates. A 2 mM solution of 1,2-dimyristoyl-sn-glycero-3-phosphocholine (DMPC) in H2O was prepared, and using a multichannel pipet, 50 μL DMPC solution was rapidly added to the plate. Peptide and lipid solutions were incubated at room temperature for 15 minutes with final concentrations of 3.16-100 μM peptides and 1 mM DMPC. After 15 minutes, absorbance was read on a plate reader at 405 nm. […] Data are presented as mean+SD over two runs. Non-linear regression was used to calculate EC50 values.

In general, EC50 refers to the concentration at which the effect is half-maximal. A low value points to greater potency. On to `CC(C)C[C@H](NC(=O)[C@H](C)NC(=O)[C@H](CCCNC(=N)N)NC(=O)[C@H](Cc1ccccc1)NC(=O)[C@H](CCCNC(=N)N)NC(=O)[C@H](CCC(=O)O)NC(=O)[C@@H](N)Cc1c[nH]c2ccccc12)C(=O)N[C@@H](Cc1ccccc1)C(=O)N[C@@H](CCCCN)C(=O)N[C@@H](CCC(=O)O)C(=O)N[C@@H](CC(C)C)C(=O)N[C@@H](C)C(=O)N[C@@H](CC(=O)O)C(=O)N[C@@H](Cc1ccc(O)cc1)C(=O)N[C@@H](Cc1ccccc1)C(=O)N[C@@H](CCCNC(=N)N)C(=O)N[C@@H](CC(=O)O)C(=O)N[C@@H](C)C(=O)O` [T-086] (H-WERFRALFKELADYFRDA-OH; N-terminus and C-terminus assumed), for which the DMPC solubilizing activity result in assay [1] is “significant activity”. Besides, in assay [2] (HMC3, 0-100 μM peptide, LXR agonist), the cholesterol efflux titration result is recorded as “concentration-dependent increase in cholesterol efflux”. Moreover, the “cholesterol efflux in the presence of LXR agonist” value in assay [2] (HMC3, 20 μM peptide, 4 hours) was “greater cholesterol efflux”. The cholesterol import titration entry in assay [3] is “not able to increase cholesterol import”. In assay [4], this compound displayed an EC50 of 15.8 µM.
